Earlier results, collected in patent publication US20250304714A1, “Methods of Treating Metastatic Castration-Resistant Prostate Cancer with Bispecific Anti-PSMA x Anti-CD3 Antibodies Alone or in Combination with Anti-PD-1 Antibodies” (Regeneron Pharmaceuticals, Inc., priority 2022, published 2025).

Key:
[1] = intended dose ˜9±1 mCi per IV injection; cited from earlier work
[2] = multiple phase 1 to 3 studies, prostate cancer patients; cited from earlier work

SMILES: O=C(O)CC[C@H](NC(=O)N[C@@H](CCCCNC(=O)c1ccc(F)nc1)C(=O)O)C(=O)O [DCFPyL]
- Radiation dose from the PET/CT scan [1]: about 7.4 mSv
- tolerability [2]: well tolerated
